What was measured:
LDL = experiment: Protection against LDL oxidation by copper (conjugated diene formation); type: biochemical; conditions: for lag phase of conjugated diene formation / rate of conjugated diene formation: 10^−4M
Protocol: LDL oxidation is an important alteration and plays a predominant role in the establishment and development of atherosclerosis (Jurgens G et al., 1987). […] Unless otherwise indicated, the reagents were from Sigma (St Quentin, France). LDL were prepared according to the method described by (Havel R J et al., 1955). The solutions of test compounds were prepared at 10^−2 M concentration in bicarbonate buffer (pH 9) and diluted in PBS to obtain final concentrations ranging from 0.1 to 100 μM for a total ethanol concentration of […]. Prior to oxidation, EDTA was removed from the LDL preparation by dialysis. Oxidation then took place at 30° C. by addition of 100 μl of 16.6 μM CuSO4 solution to 160 μL of LDL (125 μg protein/ml) and 20 μl of a test compound solution. The formation of dienes, the species under observation, was followed by measuring optical density at 234 nm in the samples treated with the compounds but in the presence or absence of copper. Optical density at 234 nm was measured every 10 minutes for 8 hours in a thermostated spectrophotometer (Tecan Ultra 380). The compounds were considered to have antioxidant activity when they induced a longer lag phase and reduced the rate of oxidation and the amount of dienes formed in comparison with the control sample.

human PPARα = target: T1, human PPARα (Homo sapiens, UniProt Q07869); experiment: PPARα/Gal4 transactivation system; type: cell-based; conditions: for concentration at which maximal activity is observed: PPAR/Gal4 transactivation system
T1 construct: expressed in transfected cells; host or cells: RK13 or COS-7
T1 sequence (Q07869 239-466 limits assumed): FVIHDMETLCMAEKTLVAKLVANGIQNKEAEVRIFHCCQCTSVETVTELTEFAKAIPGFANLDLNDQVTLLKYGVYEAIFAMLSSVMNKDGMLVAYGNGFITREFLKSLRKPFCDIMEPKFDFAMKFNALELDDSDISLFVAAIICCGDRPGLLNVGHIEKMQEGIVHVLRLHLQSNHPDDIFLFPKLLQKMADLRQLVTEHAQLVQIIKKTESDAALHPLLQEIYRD
Protocol: (§1) PPAR activation was tested in vitro in RK13 or COS-7 fibroblast cell lines by measuring the transcriptional activity of chimeras composed of the DNA binding domain of the yeast Gal4 transcription factor and the ligand binding domain of the different PPARs. These latter results were then confirmed in cell lines according to the following protocols.
(§2) Culture protocols: RK13 were from ECACC (Porton Down, UK) and were grown in DMEM medium supplemented with 10% (V/V) fetal calf serum, 100 U/ml penicillin (Gibco, Paisley, UK) and 2 mM L-glutamine (Gibco, Paisley, UK). COS-7 cells were from ATCC and were grown in DMEM medium supplemented with 10% (V/V) fetal calf serum, 1% penicillin/streptomycine (Biochrom, AG), 1% of amino acids (Gibco) and 1% sodium pyruvate (Gibco).
(§3) The culture medium was changed every two days. Cells were kept at 37° C. in a humidified 95% air/5% CO2 atmosphere.
(§4) Description of plasmids used for transfection: The plasmids Gal4(RE)_TkpGL3, pGal4-hPPARα, pGal4-hPPARγ, pGal4-hPPARδ and pGal4-φ have been described in the literature (Raspe E et al., 1999). The pGal4-hPPARα, pGal4-hPPARγ and pGal4-hPPARδ constructs were obtained by cloning into the pGal4-φ vector PCR-amplified DNA fragments corresponding to the DEF domains of the human PPARs nuclear receptors.
(§5) Transfection of RK13: RK13 cells were seeded in 24-well culture dishes at 5×10^4 cells/well and transfected for 2 hours with the reporter plasmid Gal4(RE)_TkpGL3 (50 ng/well), the expression vectors pGal4-φ, pGal4-hPPARα, pGal4-hPPARγ and pGal-hPPARδ (100 ng/well) and the transfection efficiency control vector pRL-CMV (1 ng/well) according to the previously described protocol (Raspe E, Madsen L, Lefebvre A M, Leitersdorf I, Gelman L, Peinado-Onsurbe J, Dallongeville J, Fruchart J C, Berge R and Staels B, 1999), then incubated for 36 hours with the test compounds. RK13 cells were incubated with the different compounds at concentrations of 10, 30 and 100 μM or 1, 10 and 100 μM for 24 hours. At the end of the experiment, the cells were lysed (Gibco, Paisley, UK) and luciferase activity was determined with a Dual-Luciferase™ Reporter Assay System kit (Promega, Madison, Wis., USA) according to the supplier's instructions. The protein content of the cell extracts was then measured with the Bio-Rad Protein Assay (Bio-Rad, Munich, Germany) as directed by the supplier.
(§6) Transfection of COS7: Cells in suspension are transfected, in the presence of 10% (V/V) fetal calf serum, with 150 ng of DNA per well with a pGal4-PPAR/Gal4(RE)_TkpGL3 ratio of 1/10. Cells are then seeded in 96 well plates (4×10^4 cells/well) and incubated for 24 hours at 37° C. Activation with compounds is performed on 24 hours at 37° C. in culture medium without serum. At the end of the activation period, cells are lysed and luciferase activity is determined, using the Steady Glow Luciferase Kit (Promega), according to the supplier's instructions.

human PPARγ = target: T2, human PPARγ (Homo sapiens, UniProt P37231); experiment: PPARγ/Gal4 transactivation system; type: cell-based
T2 construct: expressed in transfected cells; host or cells: RK13 or COS-7
T2 sequence (P37231 238-503 limits assumed): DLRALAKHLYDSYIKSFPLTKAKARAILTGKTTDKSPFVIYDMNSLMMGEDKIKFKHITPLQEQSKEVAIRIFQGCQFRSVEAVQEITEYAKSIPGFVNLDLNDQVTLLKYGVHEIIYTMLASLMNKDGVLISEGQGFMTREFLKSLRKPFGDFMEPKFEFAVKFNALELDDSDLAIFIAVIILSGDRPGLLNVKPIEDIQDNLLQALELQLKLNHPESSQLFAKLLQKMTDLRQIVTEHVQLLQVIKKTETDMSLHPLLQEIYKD
Protocol: as §1, §2, §3, §4, §5, §6

[1] = test system: hApoE2 Knock-in transgenic mice; experiment: Effects on triglycerides and cholesterol metabolism in vivo; parameters: species or system mouse
Protocol: Treatment of animals: hApoE2 knock-in transgenic mice were kept on a 12-hour light/dark cycle at a constant temperature of 20±3° C. After a 1 week acclimation, mice were separated in groups of 6 animals selected such that the distribution of their body weight and plasmatic lipid levels determined before the experiment were uniform. The test compounds were suspended in carboxymethylcellulose and administered by intragastric gavage at the indicated doses, once a day for 7 or 8 days. Animals had access to food and water ad libitum. At the end of the experiment the animals were weighed and sacrificed under anesthesia. Blood was collected on EDTA. Plasma was prepared by centrifugation at 3000 rpm for 20 minutes. Organs were harvested, frozen in liquid nitrogen and stored at −80° C. for subsequent analysis.
Measurement of serum lipids: Serum lipid concentrations (total cholesterol and triglycerides) were determined by a colorimetric assay (Boehringer, Mannheim, Germany) according to the supplier's instructions.

[2] = test system: Human normal primary fibroblasts; experiment: Antioxidant properties on cell cultures (carboxy-H2DCFDA fluorescence, AAPH stress), fibroblasts; type: cell-based; conditions: AAPH 750 μM; for antioxidant properties on cell cultures (in words): 25 μM for 24 h
Protocol: (§7) The reduction in the intensity of the emitted fluorescence signal was determined in cells treated with the compounds in the following manner.
(§8) Prior to stress the cells with an oxidative agent such as AAPH (CAS number 2997-92-4), cells are incubated with compounds of interest at 25 μM for 24 h. Then the culture medium is discarded and cells are rinsed two times with PBS. Cells are then incubated 30 min at 37° C. with a cell-permeant indicator for reactive oxygen species that is nonfluorescent until the acetate groups are removed by intracellular esterases and oxidation occurs within the cell 5-(and-6)-carboxy-2′,7′-dichlorodihydrofluorescein diacetate (carboxy-H2DCFDA). The probes are prepared in PBS and incubated at the final concentration of 25 μM. After the incubation with the probe, cells are rinsed and incubated another 30 min with the oxidative solution containing AAPH at 750 μM in culture medium without phenol red and serum.
(§9) The fluorescence is then measured with a fluorimeter with the following wavelength, […].
(§10) Two different cell types have been tested with the inventive compounds. Human normal primary fibroblasts and HaCat cells which are a human keratinocyte cell line.

HaCat cells = experiment: Antioxidant properties on cell cultures (carboxy-H2DCFDA fluorescence, AAPH stress), keratinocytes; type: cell-based, human; conditions: AAPH 750 μM; for antioxidant properties on cell cultures (in words): 25 μM for 24 h
Protocol: as §7, §8, §9, §10

human PPARδ = target: T3, human PPARδ (Homo sapiens, UniProt Q03181); experiment: PPARδ/Gal4 transactivation system; type: cell-based
T3 construct: expressed in transfected cells; host or cells: RK13 or COS-7
T3 sequence (Q03181 211-439 limits assumed): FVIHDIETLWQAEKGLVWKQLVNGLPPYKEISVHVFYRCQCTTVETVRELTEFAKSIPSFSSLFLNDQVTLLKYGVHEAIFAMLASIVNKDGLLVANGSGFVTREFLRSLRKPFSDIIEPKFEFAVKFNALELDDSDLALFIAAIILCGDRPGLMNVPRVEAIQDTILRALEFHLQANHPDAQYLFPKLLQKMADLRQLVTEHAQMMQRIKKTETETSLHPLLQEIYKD
Protocol: as §1, §2, §3, §4, §5
Transfection of COS7: Cells in suspension are transfected, in the presence of 10% (V/V) fetal calf serum, with 150 ng of DNA per well with a pGal4-PPAR/Gal4(RE)_TkpGL3 ratio of 1/10. […] At the end of the activation period, cells are lysed and luciferase activity is determined, using the Steady Glow Luciferase Kit (Promega), according to the supplier's instructions.

[3] = PPAR/Gal4 transactivation system
[4] = 50 mg/kg/day for 7 or 8 days, FIGS. 4-13, 4-15, 4-17, 4-19
[5] = 50 mg/kg/day for 7 or 8 days, FIGS. 4-14, 4-16, 4-18, 4-20

Structure (SMILES) | induction factor (luminescent signal relative to untreated cells) (human PPARα; 10 μM) | induction factor (luminescent signal relative to untreated cells) (human PPARα; 100 μM) | concentration at which maximal activity is observed (human PPARα) [µM] | activation of PPAR γ (in words) (human PPARγ; [3]) | activation of PPAR δ (in words) (human PPARδ) | antioxidant properties on cell cultures (in words) [2] | antioxidant properties on cell cultures (in words) (HaCat cells) | plasma cholesterol [1, 4] | plasma triglycerides [1, 5] | also measured
CCCCCCOc1ccc(C(=O)/C=C/c2cc(C)c(OC(C)(C)C(=O)O)c(C)c2)cc1 [Compound 33, 1-[4-hexyloxyphenyl]-3-[3,5-dimethyl-4-carboxydimethylmethyloxyphenyl]prop-2-en-1-one] | 44 | 77 | – | – | – | antioxidant properties | antioxidant properties | – | – | lag phase of conjugated diene formation (LDL; FIG. 1-9, copper alone 80 minutes): 247 min; rate of conjugated diene formation (LDL; FIG. 1-10, copper alone 1.9): 0.8 nmol/min/mg of LDL; maximum amount of conjugated dienes formed (LDL; FIG. 1-11, copper alone 298): 257 nmol per mg of LDL; induction factor (luminescent signal relative to untreated cells) (human PPARα; 1 μM): 22; maximum induction factor (human PPARγ; 100 μM): 45.6; cholesterol in lipoparticle subfraction (exclusion chromatography) ([1]; 50 mg/kg/day for 8 days): decrease; plasma cholesterol ([1]; 50 mg/kg/day for 8 days): decrease; plasma triglycerides ([1]; 50 mg/kg/day for 8 days): decrease; triglycerides in lipoparticle subfraction (exclusion chromatography) ([1]; 50 mg/kg/day for 8 days): decrease
Cc1cc(/C=C/C(=O)c2ccc(SC(F)(F)F)cc2)cc(C)c1OC(C)(C)C(=O)O [Compound 54, 1-[4-trifluoromethylthiophenyl]-3-[3,5-dimethyl-4-carboxydimethylmethyloxyphenyl]prop-2-en-1-one] | – | – | 0.03 | can activate | can activate | antioxidant properties | antioxidant properties | decrease | decrease | –
Cc1cc(/C=C/C(=O)c2ccc(Cl)cc2)cc(C)c1OC(C)(C)C(=O)O [Compound 17, 1-[4-chlorophenyl]-3-[3,5-dimethyl-4-carboxydimethylmethyloxyphenyl]prop-2-en-1-one] | 85 | 13.8 | – | – | – | – | – | – | – | lag phase of conjugated diene formation (LDL; FIG. 1-1, copper alone 111 minutes): 203 min; rate of conjugated diene formation (LDL; FIG. 1-2, copper alone 2): 1.7 nmol/min/mg of LDL; maximum induction factor (human PPARγ; 10 μM): 25; cholesterol in lipoparticle subfraction (exclusion chromatography) ([1]; gavage 200 mg/kg for 7 days): decreased; plasma concentration of cholesterol ([1]; gavage 200 mg/kg for 7 days): decrease; plasma concentration of triglycerides ([1]; gavage 200 mg/kg for 7 days): decrease; triglycerides in lipoparticle subfraction (exclusion chromatography) ([1]; gavage 200 mg/kg for 7 days): decreased

The next lines start with results.

induction factor (luminescent signal relative to untreated cells) (human PPARα; 10 μM) | induction factor (luminescent signal relative to untreated cells) (human PPARα; 100 μM) | concentration at which maximal activity is observed (human PPARα) [µM] | activation of PPAR γ (in words) (human PPARγ; [3]) | activation of PPAR δ (in words) (human PPARδ) | Structure (SMILES) | antioxidant properties on cell cultures (in words) [2] | antioxidant properties on cell cultures (in words) (HaCat cells) | plasma cholesterol [1, 4] | plasma triglycerides [1, 5] | also measured
– | – | 0.3 | – | can activate | Cc1cc(/C=C/C(=O)c2ccc(C(F)(F)F)cc2)cc(C)c1OC(C)(C)C(=O)O [Compound 58, 1-[4-trifluoromethylphenyl]-3-[3,5-dimethyl-4-carboxydimethylmethyloxyphenyl]prop-2-en-1-one] | antioxidant properties | antioxidant properties | decrease | decrease | concentration at which maximal activity is observed (human PPARγ; [3]): 1 µM
– | – | 0.03 | can also activate | can also activate | CCCOc1ccc(C(=O)/C=C/c2cc(C)c(OC(C)(C)C(=O)O)c(C)c2)cc1 [Compound 70, 1-[4-propyloxyphenyl]-3-[3,5-dimethyl-4-carboxydimethylmethyloxyphenyl]prop-2-en-1-one] | – | – | decrease | decrease | % of oxidative reduction versus control cells ([2]; compounds at 25 μM for 24 h): 53%; % of oxidative reduction versus control cells (HaCat cells; compounds at 25 μM for 24 h): 47%
